From paper PMC9078972 (RSC Advances, 2018)
Values after ≈ are worked out from the molar mass of the structure shown.

Assays:
[1] = test system: Mycobacterium tuberculosis H37Ra; assay: microbe, parasite or virus in culture; assay type: cell-based
[2] = Cytotoxicity against VERO cells; assay type: cell-based; settings: African green monkey, VERO cells (kidney epithelial cells)
[3] = ref previous study; cited from earlier work
[4] = physchem; settings: 37 °C, water, thermodynamic from solid
[5] = in vitro; settings: human, microsomes, pH 7.5
[6] = in vitro; settings: rat, microsomes, pH 7.5
[7] = in vitro; settings: mouse, microsomes, pH 7.5
[8] = in vitro; settings: dog

## C[C@H]1COC2(CCN(c3nc(=O)c4cc(C(F)(F)F)cc([N+](=O)[O-])c4s3)CC2)O1 [BTZ043]
[1]
  MIC: 4 nM (≈ 1.73 ng/mL)
[2]
  CC50: > 10 µM
[3]
  bioavailability F: 29.5%
[4]
  solubility: < 1 µg/mL
[5]
  half-life: 46.1 min
[6]
  half-life: 22 min
[7]
  half-life: 16.7 min
[8]; MDCK-MDR1, pH 7.4
  Papp B→A: 7.17 ×10⁻⁶ cm/s
  efflux ratio: 0.79
[8]; MDCK-MDR1, pH 7.4, Mean Papp A to B, A to B
  Papp A→B: 9.02 ×10⁻⁶ cm/s
